Where two headings read alike, the source gives them in different places. Non-standard residues stand in square brackets, D forms with d. Residues, ends and D or L forms follow the SMILES beside them.
How the values were obtained:
[1] = tested on: IL-1α+IFN-γ induced IL-17 production by HT-29 cells; test: IL-1α+IFN-γ induced IL-17 production by HT-29 cells; format: cell-based, human; conditions: 10 ng/ml IL-1α+300 U IFN-γ, peptide 10 ng/ml and 500 ng/ml, stimulated control 13.14±3.92, n=6, p<0.001
Method: (§1) Human colon epithelial cell lines HT-29 and Caco2 obtained from the European Collection of Animal Cell Cultures (ECACC) were used in cell cultures. Cells were routinely cultured at 37° C. in an atmosphere of 5% CO2 in 80 cm^2 tissue culture flasks in McCoy's and DMEM medium, respectively, supplemented with penicillin (10 u/ml), streptomycin (10 μg/ml), fungizone (0.5 μg/ml), and 10% (v/v) FCS (referred to as complete medium) until confluent.
(§2) Confluent monolayers were sub-cultured into 6-well plates for experimental protocols. Cells were grown in 6-well plates until confluent. Twenty-four hours prior to the experiment the confluent monolayers were washed and cultured in FCS-free McCoy's medium. Growth arrested cultures were then treated with fresh FCS-free medium and stimulated with vehicle controls or various doses of IL-1α added alone or in combination with other pro-inflammatory cytokines (TNF-α, IFN-γ) in the presence or absence of the peptide of sequence 4 or IL-1 ra, in a dose and time dependent manner.
Supernatants were collected, centrifuged to remove cellular debris and stored at −70° C. until assayed for extracellular inflammatory mediators. […] Production of soluble mediators was assessed by commercially available ELISA in supernatants, RT-PCR in total RNA extractants and nitric oxide, as described in Kolios, G, et al. (1995). […]

[2] = Solubility of peptide under different solvent conditions; format: physicochemical; conditions: 30 min room temperature
Method: 100 mg of each peptide was added to 100 ml total of water plus the solvents, and the solution was gently agitated for 30 min at room temperature.

[3] = tested on: thoroughbred having equine laminitis; test: Effect of peptides on equine laminitis (Obel Lameness Grades); format: in vivo, horse
Method: Each of the peptides having the sequences 13, 14, 19 and 4 were also tested to determine their effect on equine laminitis. Each peptide was administered intravenously to a thoroughbred having equine laminitis. The peptides were prepared as compositions containing 1 mg of peptide dissolved in 5 ml of a solution comprising water, bicarbonate and either benzyl alcohol or methanol. The effect of the peptides on equine laminitis was judged by the Obel Lameness Grades, which is a system of rating degrees of lameness resulting from laminitis. […] Obel Grade III horses do resist having a foreleg lifted, and are reluctant to walk. Obel Grade IV horses will walk only if forced. The Obel Score for each of the horses was measured before administration of the peptide and 24 hours after injection of the peptide. […] The effect in reducing laminitis which was caused by one single injection of the peptides on laminitis was short-lived. Therefore, the duration of the effect of the peptides in reducing laminitis was further assessed by attending veterinarians.

[4] = tested on: horses; test: Equine case studies (inflammatory conditions); format: in vivo, horse
Method: In these case studies, 13 different horses each suffering from different inflammatory conditions were treated with peptide 4, which was administered by injection in a composition containing the peptide dissolved in 5 ml of a solution comprising water, bicarbonate and either benzyl alcohol or methanol.

[5] = tested on: human subjects; test: Testing of peptide 4 in human subjects for treatment of different diseases and conditions; format: in vivo; conditions: 1 mg; for Duration: Single
Method: The peptide having the sequence 4 was tested to determine its effect on a range of different diseases in humans, horses and cows.
The peptides were prepared as compositions containing 1 mg of peptide dissolved in 5 ml of a solution comprising water, bicarbonate and either benzyl alcohol or methanol.

[6] = tested on: horses; test: Testing of peptide 4 in horses for treatment of osteoarthritis and equine laminitis; format: in vivo, horse; conditions: 1 mg
Method: The peptides were prepared as compositions containing 1 mg of peptide dissolved in 5 ml of solution, comprising water, bicarbonate and either benzyl alcohol or methanol.

[7] = tested on: IL-1α-induced IL-8 production by HT-29 cells; test: IL-1α induced IL-8 production by HT-29 colonic epithelial cells; format: cell-based, human; conditions: 10 ng/ml IL-1α
Method: as §1, §2
Supernatants were collected, centrifuged to remove cellular debris and stored at −70° C. until assayed for extracellular inflammatory mediators. Total RNA for RT-PCR was extracted as described above. Cell counting and viability was routinely checked at the beginning and the end of the experiment by phase microscopy and by trypan blue exclusion using representative wells. Mycoplasma tests were performed during the experimental protocol. Production of soluble mediators was assessed by commercially available ELISA in supernatants, RT-PCR in total RNA extractants and nitric oxide, as described in Kolios, G, et al. (1995). Br J Pharmacol, 116, 2866-2872, the contents of which are incorporated herein by reference.
HT 29 and Caco2 colonic epithelial cell lines were stimulated with 10 ng/ml of IL-la in the presence of 100 or 500 ng/ml of the peptide of sequence 4.

SMILES: CC(=O)N[C@H](CC(C)C)C(=O)N1CCC[C@@H]1C(=O)N[C@H](CC(C)C)C(=O)N[C@H](C)C(=O)N[C@H](Cc1ccc(O)cc1)C(=O)N1CCC[C@@H]1C(=O)N[C@H](CCC(N)=O)C(=O)N[C@H](Cc1c[nH]c2ccccc12)C(=O)N[C@H](Cc1ccc(O)cc1)C(=O)NCC(=O)N1CCC[C@@H]1C(=O)N[C@@H](C(=O)N[C@H](Cc1c[nH]c2ccccc12)C(=O)N[C@H](CCC(=O)O)C(=O)N[C@H](Cc1ccccc1)C(=O)O)[C@H](C)O [SEQ ID NO. 4, Ac-LPLAYPQWYGPTWEF] (Ac-[dL][dP][dL][dA][dY][dP][dQ][dW][dY]G[dP][dT][dW][dE][dF]-OH; C-terminus assumed)
- IL-1α+IFN-γ-induced IL-17 production [1]: 4.97±0.84 pg/ml per 106 cells
- solubility at 30 min ([2]; benzyl alcohol (0.1-1%) in water, benzyl alcohol (0.1-1%), 100 mg peptide in 100 ml, read-out: Solubility: Benzyl Alcohol): > 1000 µg/mL
- solubility at 30 min ([2]; hydrochloric acid (0.1-1%) in water, hydrochloric acid (0.1-1%), 100 mg peptide in 100 ml water plus solvent, read-out: Solubility: Acid): < 1000 µg/mL
- solubility at 30 min ([2]; sodium bicarbonate (0.1-1%) in water, sodium bicarbonate (0.1-1%), 100 mg peptide in 100 ml, read-out: Solubility: Base): < 1000 µg/mL
- Change in Obel Score ([3]; 1 mg intravenously, before vs 24 hours after injection, most negative = greatest improvement): −2.9
- Duration (days) of effect on laminitis ([3]; single 1 mg intravenous, averaged, report by veterinarians): 4 days
- Period without inflammation post-administration ([4]; Case 1): observed for 48 hours
- Period of minimal pain and no heat post-administration ([4]; Case 2): 48 hours post-
- Observations ([4]; Case 2: severe pain and heat in near fore hoof, 1 mg bolus intravenous): Minimal pain and no
- Observations ([4]; Case 3: years of mild laminitis, 1 mg bolus intravenous every 3rd day for three weeks, during period of treatment): Complete relief of all
- Time post-administration at which symptoms returned ([4]; Case 4): after 8 days. 10 days
- Observations ([4]; Case 4: near fore fetlock heat and pain, fluid build up in lower deep flexor tendon, 1 mg bolus intravenous, after 8 days): Fetlock completely
- Period with no pain or palpation ([4]; Case 5): observed for 14 days.
- Period of complete pain relief and increased flexion ([4]; Case 6): observed for 6 days.
- Observations ([4]; Case 6: four years of general knee joint pain, sodium hyaluranate (Synvisc) intra-articularly followed by 0.5 mg peptide 4): Complete pain relief
- Observations ([4]; Case 7: three years of general knee pain, sodium hyaluranate (Synvisc) intra-articularly followed by 0.5 mg peptide 4, no follow up treatment required): Complete pain relief
- Period of pronounced relief of symptoms ([4]; Case 8): over a 72 hour period.
- Observations ([4]; Case 9: severe muscle/ligament tear between shoulder and rib cage, 1 mg bolus intravenous, within 24 hours): Symptoms reduced
- Observations ([4]; Case 10: chronic joint pain in both knees and fetlocks, sodium hyaluranate (Synvisc) intra-articularly followed by 0.5 mg peptide 4, within 24 hours post-treatment): Significant pain relief,
- Observations ([4]; Case 11: mild work-related shin soreness, 1 mg bolus intravenous every 3rd day for a week, after the second injection): Significant improvement
- Observations ([4]; Case 12: mild work-related shin soreness, 1 mg bolus intravenous, after 24 hours post-administration): Significant pain relief
- Observations ([4]; Case 13: severe pain from inflammation and fluid build-up at 18 month old tendon injury, 1 mg weekly bolus intravenous): Complete relief of pain,
- Effect ([5]; Cancer Pain from Adrenal Cancer, IM, Repeated): Moderate
- Effect ([5]; Cancer Pain from Bone Metasta, IM, Repeated): Pronounced
- Effect ([5]; Cancer Pain from Lung Cancer, SC, Repeated): Pronounced
- Effect ([5]; Dermatitis, SC): Pronounced
- Duration ([5]; Dermatitis, SC): Single 96 hrs
- Effect ([5]; Emphysema, SC): Moderate
- Duration ([5]; Emphysema, SC): Single 48 hrs
- Effect ([5]; Lymphodema, IM): Pronounced
- Duration ([5]; Lymphodema, IM): Single 96 hrs
- Effect ([5]; Osteoarthritis, Joint): Mild
- Duration ([5]; Osteoarthritis, Joint): Single 48 hrs
- Duration ([5]; T1 Diabetes, IM): Single 96 hrs
- Effect ([5]; Tonsilitis, oral): Pronounced
- Duration ([5]; Tonsilitis, oral): Single 48 hrs
- Duration ([6]; Laminitis, IV): 72 h
- Effect ([6]; Laminitis, IV): Pronounced
- Duration ([6]; OA, Joint): 48 h
- Effect ([6]; OA, Joint): Moderate
- IL-1α-induced IL-8 production ([7]; peptide 500 ng/ml, IL-1α alone 67.455±0.125, n=6, p<0.01): 40.705±2.56 ng/ml per 106 cells
- Effect on IL-1α-induced IL-8 production ([7]; peptide 100 or 500 ng/ml, FIG. 1): reduced IL-1α-induced IL-8 production in a concentration dependent manner
